Data on 7 molecules can be found in US20220323406A1, “METHODS AND COMPOSITIONS FOR DIFFERENTIATING STEM CELLS” (Massachusetts Institute of Technology, priority 2019, published 2022).

The test system of assay [1] is 3D-cultured intestinal organoids (ENR or ENR+CD). The assay can be described thus: Lysozyme secretion assay (3D culture), normalized to ATP. The assay is classed as cell-based, mouse. The conditions noted are these: 6-day ENR+CD differentiation; for Paneth cell differentiation (functional LYZ secretion), in combination with KPT-330: with KPT-330 (160 nM). Here is the method:
Lysozyme assay (3D culture). ISC-enriched organoids cultured in 3D Matrigel with ENRCV media were passaged to 48-well plate in 3D Matrigel with ENRCV. At day zero, media were replaced to ENR or ENRCD with or without indicated compounds, and media were replaced every other day. At day six, cells were washed twice with basal media and treated with carbamylcholine chloride (Sigma, C4382) for 3 hours. Media were collected and lysozyme activity was measured by EnzChek Lysozyme Assay Kit (ThermoFisher, E22013).
Lysozyme secretion assay. ISC-enriched organoids in 3D Matrigel culture were passaged to a 48- or 96-well plate and cultured with ENR or ENR+CD media containing DMSO or each drug for 6 days. DMSO- or drug-containing media were changed every other day. On day 6, cells were washed with basal media twice and treated with basal media with or without 10 μM carbamoylcholine chloride for 3 h in a CO2 incubator at 37° C. A part of the conditioned media was collected and used for lysozyme assay (Thermo, E-22013) following the manufacturer's instruction. The fluorescence was measured using excitation/emission of 485/530 nm. CellTiter-Glo 3D Reagent (Promega, G9681) was added afterward, and the cell culture plate was incubated on an orbital shaker at RT for 30 min to induce cell lysis and to stabilize the luminescent signal. The solution was replaced to a 96-well white microplate, and luminescent signals were measured by a microplate reader (infinite M200, Tecan). The standard curve was prepared by diluting recombinant ATP (Promega, P1132). For both assays, a polynomial cubic curve was fitted to a set of standard data, and each sample value was calculated on the Microsoft Excel.

In assay [2] the test system is ENR+CD organoids (ISC to Paneth cell differentiation). The assay can be described thus: Primary screen: basal (non-stimulated) lysozyme secretion LYZ.NS, 2.5-D 384-well ENR+CD organoid differentiation. The assay is classed as cell-based, mouse. Conditions: for primary screen hit call (SSMD and z-scored FC cutoffs in both LYZ assays): LYZ.NS and LYZ.S, 0.08-10 uM, 6 days ENR+CD; for Dose.FC.LYZ.NS / Z.LYZ.NS (standard z score) / Z.LYZ.NS: primary screen; for Z.LYZ.NS: standard z score. From the text:
(§1) High-throughput screening.

Assay [3] shares this test system. Description: Primary screen: CCh-stimulated lysozyme secretion LYZ.S, 2.5-D 384-well ENR+CD organoid differentiation. The assay is classed as cell-based, mouse. Conditions: primary screen.
From the text: as §1

Assay [4] has the same test system. Description: Secondary (validation) screen: LYZ.NS basal lysozyme secretion, 2.5-D 384-well ENR+CD organoids. The assay is classed as cell-based, mouse. Conditions: 6-day ENR+CD, vs ENR+CD+DMSO.
Assay [5] has the same test system. Description: Secondary (validation) screen: LYZ.S CCh-stimulated lysozyme secretion, 2.5-D 384-well ENR+CD organoids. The conditions noted are these: 6-day ENR+CD, vs ENR+CD+DMSO. The assay is classed as cell-based, mouse.
The test system of assay [6] is ENR+CD organoids. Description: Secondary (validation) screen: ATP (CTG) assay, 2.5-D 384-well ENR+CD organoids. The assay is classed as cell-based, mouse. The conditions noted are these: 6-day ENR+CD, vs ENR+CD+DMSO.
Assay [7] concerns ENR+CD organoids. The conditions noted are these: primary screen; for Z.CTG: standard z score.

“Also recorded” adds a separate entry of the source. Read-outs that look alike come from different tables or passages of the source.
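For Z.CTG (standard z score) in this document: compounds given at plating and again on day 3 over a 6-day differentiation from ENR+CV stem-cell-enriched precursors, ATP measured on day 6, plate median as control.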
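For Z.CTG in this document: compounds given at plating and again on day 3 over a 6-day differentiation from ENR+CV stem-cell-enriched precursors, ATP measured on day 6, plate median as control.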

Turning to `O=C(c1ccc(F)c(F)c1Nc1ccc(I)cc1F)N1CC(O)([C@@H]2CCCCN2)C1` [cobimetinib], in assay [1], the “Paneth cell differentiation (functional LYZ secretion), compound alone” value (from here on “Paneth cell differentiation … compound alone”) was “did not significantly alter Paneth cell differentiation” and the “Paneth cell differentiation (functional LYZ secretion), in combination with KPT-330” value (shortened to “Paneth cell differentiation … with KPT-330”) is given as “differentiation was enhanced; also recorded: significantly enhance Paneth cell differentiation”.

For `CCc1c(C(=O)C(N)=O)c2c(OCC(=O)O)cccc2n1Cc1ccccc1` [Varespladib (LY315920), Varespladib, reference compound], in assay [2], the “primary screen hit call (SSMD and z-scored FC cutoffs in both LYZ assays)” value is “sole hit in their respective pathway”. The Dose.FC.LYZ.NS was 0.176 log2 fold change in assay [2] (dose 0.08 uM); 0.197 log2 fold change in assay [2] (dose 0.40 uM); 0.164 log2 fold change in assay [2] (dose 2.00 uM); 0.074 log2 fold change in assay [2] (dose 10.00 uM); −0.091 log2 fold change in assay [4] (0.02 uM); 0.015 log2 fold change in assay [4] (0.04 uM). The Dose.FC.LYZ.NS in assay [4] (0.08 uM) came to 0.090 log2 fold change; in assay [4] ([…]) it was 0.156 log2 fold change. Also, the “Z.LYZ.NS (standard z score)” value in assay [2] (dose 0.08 uM) is recorded as 1.533; in assay [2] (dose 0.40 uM), 1.719; in assay [2] (dose 2.00 uM), 1.430; in assay [2] (dose 10.00 uM), 0.643. Besides, the Dose.FC.LYZ.S was 0.274 log2 fold change in assay [3] (dose 0.08 uM); 0.157 log2 fold change in assay [3] (dose 0.40 uM); 0.176 log2 fold change in assay [3] (dose 2.00 uM); 0.051 log2 fold change in assay [3] (dose 10.00 uM); −0.138 log2 fold change in assay [5] (0.02 uM); −0.044 log2 fold change in assay [5] (0.04 uM). In addition, the Dose.FC.LYZ.S was 0.065 log2 fold change in assay [5] (0.08 uM) and 0.102 log2 fold change in assay [5] ([…]). Further, the Dose.FC.CTG in the assay on ENR+CD organoids [6] (0.02 uM) is 0.027 log2 fold change; with ENR+CD organoids [6] (0.04 uM) it was 0.113 log2 fold change; in the assay on ENR+CD organoids [6] (0.08 uM) it was 0.207 log2 fold change; with ENR+CD organoids [6] ([…]) it was 0.148 log2 fold change; with ENR+CD organoids [7] (dose 0.08 uM), 0.428 log2 fold change; in the assay on ENR+CD organoids [7] (dose 0.40 uM), 0.362 log2 fold change. For the same molecule, the Dose.FC.CTG in the assay on ENR+CD organoids [7] (dose 2.00 uM) came out at 0.152 log2 fold change; with ENR+CD organoids [7] (dose 10.00 uM) it was 0.241 log2 fold change. Also, the “Z.CTG (standard z score)” value came out at 1.022 with ENR+CD organoids [7] (dose 0.08 uM), 0.864 in the assay on ENR+CD organoids [7] (dose 0.40 uM), 0.363 in the assay on ENR+CD organoids [7] (dose 2.00 uM) and 0.575 in the assay on ENR+CD organoids [7] (dose 10.00 uM).

`COc1cc2c(Nc3ccc(NC(=O)c4ccccc4)cc3)ncnc2cc1OCCCN1CCOCC1` [ZM447439, reference compound]: the “primary screen hit call (SSMD and z-scored FC cutoffs in both LYZ assays)” value in assay [2] is reported as “lower-effect size hit of the primary screen”. Also, the “Paneth cell differentiation … compound alone” value in assay [1] is given as “did significantly increase Paneth cell differentiation”.

As to `CC1=C(/C=C/C(=C/C=C/C(C)=C/C(=O)O)c2ccc(C)cc2)C(C)(C)CCC1` [SR11302], in assay [1], the “Paneth cell differentiation … compound alone” value is listed as “also decreases functional LYZ secretion” and the “Paneth cell differentiation … with KPT-330” value is on record as “significantly decreases functional LYZ secretion”.

With `c1ccc2c(CCNc3ccc(Nc4ccncc4)cc3)c[nH]c2c1` [serdemetan], in assay [1], the “Paneth cell differentiation … compound alone” value was “neither P53 inhibitor altered Paneth cell differentiation” and the “Paneth cell differentiation … with KPT-330” value was “neither P53 inhibitor altered Paneth cell differentiation”.

Regarding `Cc1ccc(C(=O)Cn2c3c(sc2=N)CCCC3)cc1` [pifithrin-α], in assay [1], the “Paneth cell differentiation … compound alone” value is reported as “neither P53 inhibitor altered Paneth cell differentiation” and the “Paneth cell differentiation … with KPT-330” value was “neither P53 inhibitor altered Paneth cell differentiation”.

`C=C1C[C@@H]2[C@H](CC[C@]3(C)C(=O)CC[C@@H]23)[C@@]2(C)C=CC(=O)C=C12` [Exemestane]: the Dose.FC.LYZ.NS in assay [2] (dose 0.08 uM) was determined as 0.051 log2 fold change; in assay [2] (dose 0.40 uM), 0.079 log2 fold change; in assay [2] (dose 2.00 uM), 0.001 log2 fold change; in assay [2] (dose 10.00 uM), 0.007 log2 fold change. Moreover, the Z.LYZ.NS was 0.447 in assay [2] (dose 0.08 uM), 0.687 in assay [2] (dose 0.40 uM), 0.012 in assay [2] (dose 2.00 uM) and 0.060 in assay [2] (dose 10.00 uM). The Dose.FC.LYZ.S in assay [3] (dose 0.08 uM) is 0.062 log2 fold change; in assay [3] (dose 0.40 uM), 0.035 log2 fold change; in assay [3] (dose 2.00 uM), 0.058 log2 fold change; in assay [3] (dose 10.00 uM), −0.005 log2 fold change. For the same molecule, the Dose.FC.CTG in the assay with ENR+CD organoids [7] (dose 0.08 uM) is −0.046 log2 fold change; in the assay on ENR+CD organoids [7] (dose 0.40 uM), −0.407 log2 fold change; in the assay with ENR+CD organoids [7] (dose 2.00 uM) it was 0.170 log2 fold change; in the assay with ENR+CD organoids [7] (dose 10.00 uM) it was −0.167 log2 fold change. In addition, the Z.CTG in the assay with ENR+CD organoids [7] (dose 0.08 uM) is −0.110; in the assay on ENR+CD organoids [7] (dose 0.40 uM) it was −0.973; in the assay with ENR+CD organoids [7] (dose 2.00 uM), 0.405; with ENR+CD organoids [7] (dose 10.00 uM), −0.398.
